{"source": "patent US10968215B2", "about": "(SHANGHAI HAIHE PHARMACEUTICAL CO., LTD., priority 2016, dated 2021)", "target": "PRC2 complex (EZH2 Y641F/EED/SUZ12/RbAp48/AEBP2) (Homo sapiens (Human), UniProt Q15910, Y641F)", "sequence (Q15910 whole entry Y641F)": "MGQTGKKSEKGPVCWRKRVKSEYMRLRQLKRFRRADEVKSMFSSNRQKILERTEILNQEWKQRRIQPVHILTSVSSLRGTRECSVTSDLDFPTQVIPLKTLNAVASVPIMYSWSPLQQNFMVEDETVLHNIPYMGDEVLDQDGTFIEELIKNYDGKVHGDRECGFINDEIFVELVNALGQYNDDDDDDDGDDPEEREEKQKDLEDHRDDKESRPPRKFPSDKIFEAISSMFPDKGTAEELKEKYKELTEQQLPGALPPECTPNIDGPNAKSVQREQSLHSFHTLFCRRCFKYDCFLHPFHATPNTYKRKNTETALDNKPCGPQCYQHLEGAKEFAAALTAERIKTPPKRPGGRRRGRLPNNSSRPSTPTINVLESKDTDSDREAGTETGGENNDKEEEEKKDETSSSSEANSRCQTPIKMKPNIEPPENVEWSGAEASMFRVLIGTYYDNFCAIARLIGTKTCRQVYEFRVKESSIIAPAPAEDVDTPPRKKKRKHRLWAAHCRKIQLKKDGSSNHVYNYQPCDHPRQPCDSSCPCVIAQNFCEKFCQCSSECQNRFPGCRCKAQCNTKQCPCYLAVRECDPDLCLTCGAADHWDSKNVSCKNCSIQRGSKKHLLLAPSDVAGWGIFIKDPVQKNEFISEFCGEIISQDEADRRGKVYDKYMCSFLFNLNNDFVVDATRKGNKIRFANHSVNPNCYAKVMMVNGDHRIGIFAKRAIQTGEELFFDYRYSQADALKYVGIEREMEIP", "sequence (O75530 whole entry partner)": "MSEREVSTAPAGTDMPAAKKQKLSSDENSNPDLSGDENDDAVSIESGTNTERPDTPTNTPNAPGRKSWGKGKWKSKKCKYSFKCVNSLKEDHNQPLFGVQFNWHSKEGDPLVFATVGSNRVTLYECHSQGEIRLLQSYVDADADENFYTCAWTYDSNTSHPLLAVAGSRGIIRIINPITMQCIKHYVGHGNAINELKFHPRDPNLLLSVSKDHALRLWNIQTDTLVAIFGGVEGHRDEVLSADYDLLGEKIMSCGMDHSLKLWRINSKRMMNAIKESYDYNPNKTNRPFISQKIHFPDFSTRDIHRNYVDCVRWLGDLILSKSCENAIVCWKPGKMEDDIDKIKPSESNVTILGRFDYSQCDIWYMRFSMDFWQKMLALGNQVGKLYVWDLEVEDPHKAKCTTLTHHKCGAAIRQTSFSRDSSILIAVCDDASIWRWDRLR", "sequence (Q15022 whole entry partner)": "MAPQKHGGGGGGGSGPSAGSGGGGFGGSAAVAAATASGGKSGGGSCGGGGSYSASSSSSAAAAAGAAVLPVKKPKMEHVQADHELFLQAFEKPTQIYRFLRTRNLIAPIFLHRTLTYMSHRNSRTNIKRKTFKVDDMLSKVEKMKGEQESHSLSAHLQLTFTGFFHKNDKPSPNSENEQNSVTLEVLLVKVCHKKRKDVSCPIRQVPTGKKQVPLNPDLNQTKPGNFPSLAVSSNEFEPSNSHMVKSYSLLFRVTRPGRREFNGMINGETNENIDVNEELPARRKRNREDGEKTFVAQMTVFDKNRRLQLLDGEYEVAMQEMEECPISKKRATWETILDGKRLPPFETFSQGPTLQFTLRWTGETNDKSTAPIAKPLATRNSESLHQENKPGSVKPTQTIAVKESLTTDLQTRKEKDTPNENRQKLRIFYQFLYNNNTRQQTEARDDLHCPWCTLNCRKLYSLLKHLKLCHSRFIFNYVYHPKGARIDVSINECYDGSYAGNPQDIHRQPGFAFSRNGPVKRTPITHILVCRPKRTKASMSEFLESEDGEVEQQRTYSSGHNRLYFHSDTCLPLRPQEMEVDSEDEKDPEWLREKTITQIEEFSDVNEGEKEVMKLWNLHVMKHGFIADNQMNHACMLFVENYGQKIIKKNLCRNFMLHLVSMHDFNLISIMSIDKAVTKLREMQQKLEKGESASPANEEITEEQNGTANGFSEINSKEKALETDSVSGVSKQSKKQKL", "sequence (Q09028 whole entry partner)": "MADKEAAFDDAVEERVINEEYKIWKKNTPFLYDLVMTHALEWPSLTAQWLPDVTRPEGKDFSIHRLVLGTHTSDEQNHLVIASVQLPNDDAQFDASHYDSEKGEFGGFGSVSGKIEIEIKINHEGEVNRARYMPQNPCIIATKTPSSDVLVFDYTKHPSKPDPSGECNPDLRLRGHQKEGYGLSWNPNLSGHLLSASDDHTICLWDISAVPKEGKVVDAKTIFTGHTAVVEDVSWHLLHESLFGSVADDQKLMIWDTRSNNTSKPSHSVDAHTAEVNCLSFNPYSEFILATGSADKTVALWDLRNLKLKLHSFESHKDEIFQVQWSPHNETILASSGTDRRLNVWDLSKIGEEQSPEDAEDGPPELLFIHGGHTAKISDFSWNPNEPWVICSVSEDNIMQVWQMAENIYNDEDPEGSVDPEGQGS", "sequence (Q6ZN18 whole entry partner)": "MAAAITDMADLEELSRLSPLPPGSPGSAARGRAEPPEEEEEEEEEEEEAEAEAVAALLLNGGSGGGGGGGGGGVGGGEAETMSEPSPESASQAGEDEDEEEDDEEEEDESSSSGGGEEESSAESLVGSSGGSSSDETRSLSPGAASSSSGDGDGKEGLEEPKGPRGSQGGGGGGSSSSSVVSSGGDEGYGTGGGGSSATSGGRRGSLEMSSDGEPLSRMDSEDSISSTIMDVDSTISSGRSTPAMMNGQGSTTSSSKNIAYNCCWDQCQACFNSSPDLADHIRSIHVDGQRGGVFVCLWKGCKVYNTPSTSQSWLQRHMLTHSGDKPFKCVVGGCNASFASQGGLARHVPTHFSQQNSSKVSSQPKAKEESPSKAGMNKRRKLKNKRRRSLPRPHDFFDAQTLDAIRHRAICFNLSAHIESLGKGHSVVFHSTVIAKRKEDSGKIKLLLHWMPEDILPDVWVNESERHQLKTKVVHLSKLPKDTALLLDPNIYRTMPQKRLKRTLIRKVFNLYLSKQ", "assay": "Activity of a compound to PRC2 complex (EZH2 Y641F), HTRF", "key": {"[1]": {"details": "read-out: IC50 (EZH2_Y641F), EZH2 Y641F PRC2 complex, HTRF, class symbols"}}, "note": "Where two headings read alike, the source gives them in different places.", "experimental": "Determination of the Activity of a Compound to PRC2 Complex (EZH2Y641F):\nDetection Method: Homogeneous Time-Resolved Fluorescence (HTRF)\nReaction was conducted in darkness at room temperature for 4 h. […] The IC50 values of the compounds were calculated using SoftMax Pro 5.4.1 software.", "data": [{"molecule": "Cc1cc(C)c(CNC(=O)c2cc3cc(-c4cncn4C)cn3c(C(C)N3CCN(CC(F)(F)F)CC3)c2C)c(=O)[nH]1", "note": "(centres unmarked) [Example 136, N-((4,6-dimethyl-2-oxo-1,2-dihydropyridin-3-yl)methyl)-6-methyl-2-(1-methyl-1H-imidazol-5-yl)-5-(1-(4-(2,2,2-trifluoroethyl)piperazin-1-yl)ethyl)indolizine-7-carboxamide]", "values": [{"measurement": "IC50", "setting": "[1]", "result": "< 100", "unit": "nM"}]}, {"molecule": "Cc1cc(C)c(CNC(=O)c2cc3cc(-c4cncn4C)cn3c(C(C)N3CCC(N(C)C)CC3)c2C)c(=O)[nH]1", "note": "(centres unmarked) [Example 134, N-((4,6-dimethyl-2-oxo-1,2-dihydropyridin-3-yl)methyl)-5-(1-(4-(dimethylamino)piperidin-1-yl)ethyl)-6-methyl-2-(1-methyl-1H-imidazol-5-yl)indolizine-7-carboxamide]", "values": [{"measurement": "IC50", "setting": "[1]", "result": "< 100", "unit": "nM"}]}, {"molecule": "Cc1cc(C)c(CNC(=O)c2cc3cc(-c4nccn4C)cn3c(C(C)N3CCOCC3)c2C)c(=O)[nH]1", "note": "(centres unmarked) [Example 79, N-((4,6-dimethyl-2-oxo-1,2-dihydropyridin-3-yl)methyl)-6-methyl-2-(1-methyl-1H-imidazole-2-yl)-5-(1-morpholinoethyl)indolizine-7-carboxamide]", "values": [{"measurement": "IC50", "result": "< 100", "unit": "nM"}]}, {"molecule": "Cc1cc(C)c(CNC(=O)c2cc3cc(-c4ccn(C)n4)cn3c(C(C)N3CCC(N(C)C)CC3)c2C)c(=O)[nH]1", "note": "(centres unmarked) [Example 77, N-((4,6-dimethyl-2-oxo-1,2-dihydropyridin-3-yl)methyl)-5-(1-(4-(dimethylamino)piperidine-1-yl)ethyl)-6-methyl-2-(1-methyl-1H-pyrazol-3-yl)indolizin-7-carboxamide]", "values": [{"measurement": "IC50", "setting": "[1]", "result": "< 100", "unit": "nM"}]}, {"molecule": "Cc1cc(C)c(CNC(=O)c2cc3cc(-c4ccnn4C)cn3c(C(C)N3CCOCC3)c2C)c(=O)[nH]1", "note": "(centres unmarked) [Example 41, N-((4,6-dimethyl-2-oxo-1,2-dihydropyridin-3-yl)methyl)-6-methyl-2-(1-methyl-1H-pyrazol-5-yl)-5-(1-morpholineylethyl)indolizine-7-carboxamide]", "values": [{"measurement": "IC50", "setting": "[1]", "result": "< 100", "unit": "nM"}]}, {"molecule": "CCN(c1c(C)c(C(=O)NCc2c(OC)cc(C)[nH]c2=O)cc2c(-c3ccnc(N(C)C)c3)ncn12)C1CCN(CC(F)(F)F)CC1", "note": "[Compound 204, 1-(2-(dimethylamino)pyridin-4-yl)-5-(ethyl(1-(2,2,2-trifluoroethyl)piperidin-4-yl)amino)-N-((4-methoxy-6-methyl-2-oxo-1,2-dihydropyridin-3-yl)methyl)-6-methylimidazo[1,5-a]pyridine-7-carboxamide]", "values": [{"measurement": "IC50", "setting": "[1]", "result": "< 100", "unit": "nM"}]}, {"molecule": "CCN(c1c(C)c(C(=O)NCc2c(C)cc(C)[nH]c2=O)cc2cc(Br)cn12)C1CCN(C(C)=O)CC1", "note": "[Example 62, 5-((1-acetylpiperidin-4-yl)(ethyl)amino)-2-bromo-N-((4,6-dimethyl-2-oxo-1,2-dihydropyridine-3-yl)methyl)-6-methylindolizine-7-carboxamide]", "values": [{"measurement": "IC50", "result": "< 100", "unit": "nM"}]}, {"molecule": "Cc1cc(C)c(CNC(=O)c2cc3cc(-c4cncs4)cn3c(C(C)N3CCN(CC(F)(F)F)CC3)c2C)c(=O)[nH]1", "note": "(centres unmarked) [Example 141, N-((4,6-dimethyl-2-oxo-1,2-dihydropyridin-3-yl)methyl)-6-methyl-2-(thiazole-5-yl)-5-(1-(4-(2,2,2-trifluoroethyl)piperazin-1-yl)ethyl)indolizine-7-carboxamide]", "values": [{"measurement": "IC50", "setting": "[1]", "result": "100 to 1000", "unit": "nM"}]}, {"molecule": "COC1CCN(C(C)c2c(C)c(C(=O)NCc3c(C)cc(C)[nH]c3=O)cc3cc(Br)cn23)CC1", "note": "(centres unmarked) [Example 143, 2-Bromo-N-((4,6-dimethyl-2-oxo-1,2-dihydropyridin-3-yl)methyl)-6-methyl-5-(1-(4-methoxypiperidin-1-yl)ethyl)indolizine-7-carboxamide]", "values": [{"measurement": "IC50", "result": "100 to 1000", "unit": "nM"}]}, {"molecule": "Cc1cc(C)c(CNC(=O)c2cc3c(Cl)ccn3c(C(C)N3CCOCC3)c2C)c(=O)[nH]1", "note": "(centres unmarked) [Example 27, 1-chloro-N-((4,6-dimethyl-2-oxo-1,2-dihydropyridin-3-yl)methyl)-6-methyl-5-(1-morphinolinylethyl)indolizine-7-carboxamide]", "values": [{"measurement": "IC50", "setting": "[1]", "result": "< 100", "unit": "nM"}]}, {"molecule": "N-((4,6-dimethyl-2-oxo-1,2-dihydropyridin-3-yl)methyl)-2-(3-((dimethylamino)methyl)phen yl))-6-methyl-5-(1-morpholineethyl)indolizine-7-amide [Example 74]", "values": [{"measurement": "IC50", "setting": "[1]", "result": "< 100", "unit": "nM"}]}, {"molecule": "CCN(c1c(C)c(C(=O)NCc2c(C)cc(C)[nH]c2=O)cc2cc(-c3cn(C)cn3)cn12)C1CCOCC1", "note": "[Example 73, N-((4,6-dimethyl-2-oxo-1,2-dihydropyridin-3-yl)methyl)-5-(ethyl(tetrahydro-2H-pyran-4-yl)amino)-6-methyl-2-(1-methyl-1H-imidazol-4-yl)indolizin-7-carboxamide]", "values": [{"measurement": "IC50", "result": "< 100", "unit": "nM"}]}, {"molecule": "COc1cccc(-c2cc3cc(C(=O)NCc4c(C)cc(C)[nH]c4=O)c(C)c(C(C)N4CCOCC4)n3c2)c1", "note": "(centres unmarked) [Example 96, N-((4,6-dimethyl-2-oxo-1,2-dihydropyridin-3-yl)methyl)-2-(3-methoxyphenyl)-6-methyl-5-(1-morpholinylethyl)indolizine-7-carboxamide]", "values": [{"measurement": "IC50", "setting": "[1]", "result": "< 100", "unit": "nM"}]}, {"molecule": "CCN(c1c(C)c(C(=O)NCc2c(C)cc(C)[nH]c2=O)cc2cc(-c3ccccc3)cn12)C1CCOCC1", "note": "[Example 63]", "values": [{"measurement": "IC50", "setting": "[1]", "result": "100 to 1000", "unit": "nM"}]}, {"molecule": "Cc1cc(C)c(CNC(=O)c2cc3cc(C4CCNCC4)cn3c(C(C)N3CCOCC3)c2C)c(=O)[nH]1", "note": "(centres unmarked) [Example 46, N-((4,6-dimethyl-2-oxo-1,2-dihydropyridin-3-yl)methyl)-6-methyl-5-(1-morphinolinylethyl)-2-(piperidin-4-yl)indolizine-7-carboxamide]", "values": [{"measurement": "IC50", "setting": "[1]", "result": "< 100", "unit": "nM"}]}, {"molecule": "CNc1ccc(-c2ccn3c(C(C)N4CCN(CC(F)(F)F)CC4)c(C)c(C(=O)NCc4c(OC)cc(C)[nH]c4=O)cc23)cn1", "note": "(centres unmarked) [Compound 163, N-((4-methoxy-6-methyl-2-oxo-1,2-dihydropyridin-3-yl)methyl)-6-methyl-1-(6-(methylamino)pyridin-3-yl)-5-(1-(4-(2,2,2-trifluoroethyl)piperazin-1-yl)ethyl)indolizine-7-carboxamide]", "values": [{"measurement": "IC50", "setting": "[1]", "result": "< 100", "unit": "nM"}]}, {"molecule": "Cc1cc(C)c(CNC(=O)c2cc3cc(-c4cncn4C)cn3c(C(C)N3CCOCC3)c2C)c(=O)[nH]1", "note": "(centres unmarked) [Example 86, N-((4,6-dimethyl-2-oxo-1,2-dihydropyridin-3-yl)methyl)-6-methyl-2-(1-methyl-1H-imidazole-5-yl)-5-(1-morpholinoethyl)indolizine-7-carboxamide]", "values": [{"measurement": "IC50", "setting": "[1]", "result": "< 100", "unit": "nM"}]}, {"molecule": "Cc1cc(C)c(CNC(=O)c2cc3cccn3c(C(C)OCc3ccccc3)c2C)c(=O)[nH]1", "note": "(centres unmarked) [Example 9, 5-(1-(benzyloxy)ethyl)-N-((4,6-dimethyl-2-oxo-1,2-dihydropyridin-3-yl)methyl)-6-methylindolizine-7-carboxamide]", "values": [{"measurement": "IC50", "setting": "[1]", "result": "100 to 1000", "unit": "nM"}]}, {"molecule": "COc1cc(C)[nH]c(=O)c1CNC(=O)c1cc2cc(-c3nccn3C)cn2c(C(C)N2CCC(N(C)C)CC2)c1C", "note": "(centres unmarked) [Example 108]", "values": [{"measurement": "IC50", "setting": "[1]", "result": "< 100", "unit": "nM"}]}, {"molecule": "COc1cc(C)[nH]c(=O)c1CNC(=O)c1cc2c(-c3ccnc4c3CCN4)ccn2c(C(C)N2CCN(CC(F)(F)F)CC2)c1C", "note": "(centres unmarked) [Compound 207]", "values": [{"measurement": "IC50", "setting": "[1]", "result": "< 100", "unit": "nM"}]}, {"molecule": "CCN(c1c(C)c(C(=O)NCc2c(C)cc(C)[nH]c2=O)cc2cc(Br)cn12)C1CCNCC1", "note": "[Example 61, 2-bromo-N-((4,6-dimethyl-2-oxo-1,2-dihydropyridin-3-yl)methyl)-5-(ethyl(piperidin-4-yl)amino)-6-methylindolizine-7-carboxamide]", "values": [{"measurement": "IC50", "setting": "[1]", "result": "100 to 1000", "unit": "nM"}]}, {"molecule": "COc1cc(C)[nH]c(=O)c1CNC(=O)c1cc2c(-c3ccnc(Cl)c3)ccn2c([C@H](C)N2CCN(CC(F)(F)F)CC2)c1C", "note": "(single isomer, unassigned) [Compound 168, (S)-1-(2-chloropyridin-4-yl)-N-((4-methoxy-6-methyl-2-oxo-1,2-dihydropyridine-3-yl)methyl)-6-methyl-5-(1-(4-(2,2,2-trifluoroethyl)piperazin-1-yl)ethyl)indolizine-7-carboxamide or (R) 1-(2-chloropyridin-4-yl)-N-((4-methoxy-6-methyl-2-oxo-1,2-dihydropyridine-3-yl)methyl)-6-methyl-5-(1-(4-(2,2,2-trifluoroethyl)piperazin-1-yl)ethyl)indolizine-7-carboxamide]", "values": [{"measurement": "IC50", "setting": "[1]", "result": "100 to 1000", "unit": "nM"}]}, {"molecule": "COc1cc(C)[nH]c(=O)c1CNC(=O)c1cc2c(-c3ccc(C)nc3C)ccn2c([C@H](C)N2CCN(CC(F)(F)F)CC2)c1C", "note": "(single isomer, unassigned) [Compound 178, (S)-1-(2,6-dimethylpyridin-3-yl)-N-((4-methoxy-6-methyl-2-oxo-1,2-dihydropyridine-3-yl)methyl)-6-methyl-5-(1-(4-(2,2,2-trifluoroethyl)piperazin-1-yl)ethyl)indolizine-7-carboxamide or (R) 1-(2,6-dimethylpyridin-3-yl)-N-((4-methoxy-6-methyl-2-oxo-1,2-dihydropyridine-3-yl)methyl)-6-methyl-5-(1-(4-(2,2,2-trifluoroethyl)piperazin-1-yl)ethyl)indolizine-7-carboxamide]", "values": [{"measurement": "IC50", "setting": "[1]", "result": "100 to 1000", "unit": "nM"}]}, {"molecule": "Cc1cc(C)c(CNC(=O)c2cc3cc(-c4cccc(N5CCOCC5)c4)cn3c(C(C)N3CCOCC3)c2C)c(=O)[nH]1", "note": "(centres unmarked) [Example 36, N-((4,6-dimethyl-2-oxo-1,2-dihydropyridin-3-yl)methyl)-6-methyl-5-(1-morphinolinylethyl)-2-(3-morphinolinylphenyl)indolizine-7-carboxamide]", "values": [{"measurement": "IC50", "setting": "[1]", "result": "< 100", "unit": "nM"}]}, {"molecule": "CCN(c1c(C)c(C(=O)NCc2c(OC)cc(C)[nH]c2=O)cc2c(-c3ccnc(N(C)C)c3)ccn12)C1CCN(CC(F)(F)F)CC1", "note": "[Compound 203, 1-(2-(dimethylamino)pyridin-4-yl)-5-(ethyl(1-(2,2,2-trifluoroethyl)piperidin-4-yl)amino)-N-((4-methoxy-6-methyl-2-oxo-1,2-dihydropyridin-3-yl)methyl)-6-methylindolizine-7-carboxamide]", "values": [{"measurement": "IC50", "setting": "[1]", "result": "< 100", "unit": "nM"}]}, {"molecule": "COc1cc(C)[nH]c(=O)c1CNC(=O)c1cc2c(-c3ccc(C)nn3)ccn2c(C(C)N2CCN(CC(F)(F)F)CC2)c1C", "note": "(centres unmarked) [Compound 199, N-((4-methoxy-6-methyl-2-oxo-1,2-dihydropyridin-3-yl)methyl)-6-methyl-1-(6-methylpyridazin-3-yl)-5-(1-(4-(2,2,2-trifluoroethyl)piperazin-1-yl)ethyl)indolizine-7-carboxamide]", "values": [{"measurement": "IC50", "setting": "[1]", "result": "< 100", "unit": "nM"}]}]}
